≈ marks a conversion by molar mass, not a printed value.
What was measured:
Escherichia coli [1] = assay: Antibacterial activity against multidrug resistant Escherichia coli ATCC BAA-196 assessed as reduction in bacterial growth incubated for 1 day by paper disk diffusion method; assay type: functional; conditions: ATCC BAA-196, 24 h
Enterococcus faecalis [2] = assay: Antibacterial activity against Enterococcus faecalis ATCC 29212 assessed as diameter of inhibition zone at 0.5 mg/ml incubated for 24 hrs by agar diffusion method; assay type: functional; conditions: read-out: DIZ
Escherichia coli [3] = assay: Antibacterial activity against multidrug resistant Escherichia coli ATCC BAA-196 assessed as diameter of inhibition zone at 0.5 mg/ml incubated for 24 hrs by agar diffusion method; assay type: functional; conditions: read-out: DIZ
Staphylococcus aureus [4] = assay: Antibacterial activity against multidrug resistant Staphylococcus aureus ATCC 33591 assessed as reduction in bacterial growth incubated for 1 day by paper disk diffusion method; assay type: functional; conditions: ATCC 33591, 24 h
Pseudomonas aeruginosa [5] = assay: Antibacterial activity against multidrug resistant Pseudomonas aeruginosa ATCC BAA-2111 assessed as reduction in bacterial growth incubated for 1 day by paper disk diffusion method; assay type: functional; conditions: ATCC BAA-2111, 24 h
Pseudomonas aeruginosa [6] = assay: Bactericidal activity against Pseudomonas aeruginosa ATCC BAA-2111 incubated for 24 hrs followed by transferring to freshly prepared broth medium and measured after 24 hrs by broth microdilution assay; assay type: functional; conditions: time 48 hrs
Salmonella typhimurium [7] = assay: Antibacterial activity against Salmonella typhi ATCC 6539 assessed as reduction in bacterial growth incubated for 1 day by paper disk diffusion method; assay type: functional, Salmonella enterica subsp. enterica serovar Typhimurium; conditions: Salmonella enterica, ATCC 6539, 24 h
Pseudomonas aeruginosa [8] = assay: Antibacterial activity against multidrug resistant Pseudomonas aeruginosa ATCC BAA-2111 assessed as diameter of inhibition zone at 0.5 mg/ml incubated for 24 hrs by agar diffusion method; assay type: functional; conditions: read-out: DIZ
Enterococcus faecalis [9] = assay: Bactericidal activity against Enterococcus faecalis ATCC 29212 incubated for 24 hrs followed by transferring to freshly prepared broth medium and measured after 24 hrs by broth microdilution assay; assay type: functional; conditions: time 48 hrs
Escherichia coli [10] = assay: Antibacterial activity against Escherichia coli ATCC 25922 assessed as reduction in bacterial growth incubated for 1 day by paper disk diffusion method; assay type: functional; conditions: ATCC 25922, 24 h
Aspergillus brasiliensis [11] = assay: Antifungal activity against Aspergillus brasiliensis ATCC 16404 assessed as diameter of inhibition zone at 0.5 mg/ml incubated for 72 hrs by agar diffusion method; assay type: functional; conditions: read-out: DIZ
Staphylococcus aureus [12] = assay: Bactericidal activity against Staphylococcus aureus ATCC 29213 incubated for 24 hrs followed by transferring to freshly prepared broth medium and measured after 24 hrs by broth microdilution assay; assay type: functional; conditions: time 48 hrs
Escherichia coli [13] = assay: Bactericidal activity against Escherichia coli ATCC BAA-196 incubated for 24 hrs followed by transferring to freshly prepared broth medium and measured after 24 hrs by broth microdilution assay; assay type: functional; conditions: time 48 hrs
Neutrophil = assay: Immunomodulatory activity in human neutrophils infected with bacteria assessed as increase in bacterial killing by measuring reduced NBT incubated for 30 mins by NBT dye based spectrophotometry; assay type: functional; parameters: concentration or dose not given beside the values; conditions: 0.5 h
Enterococcus faecalis [14] = assay: Antibacterial activity against Enterococcus faecalis ATCC 29212 assessed as reduction in bacterial growth incubated for 1 day by paper disk diffusion method; assay type: functional; conditions: ATCC 29212, 24 h
Staphylococcus aureus [15] = assay: Bactericidal activity against Staphylococcus aureus ATCC 33591 incubated for 24 hrs followed by transferring to freshly prepared broth medium and measured after 24 hrs by broth microdilution assay; assay type: functional; conditions: time 48 hrs
Candida albicans [16] = assay: Antifungal activity against Candida albicans ATCC 10231 assessed as reduction in bacterial growth incubated for 1 day by paper disk diffusion method; assay type: functional; conditions: ATCC 10231, 24 h
Staphylococcus aureus [17] = assay: Bactericidal activity against Staphylococcus aureus ATCC 43300 incubated for 24 hrs followed by transferring to freshly prepared broth medium and measured after 24 hrs by broth microdilution assay; assay type: functional; conditions: time 48 hrs
Escherichia coli [18] = assay: Antibacterial activity against Escherichia coli ATCC 25922 assessed as diameter of inhibition zone at 0.5 mg/ml incubated for 24 hrs by agar diffusion method; assay type: functional; conditions: read-out: DIZ
Staphylococcus aureus [19] = assay: Antibacterial activity against multidrug resistant Staphylococcus aureus ATCC 43300 assessed as reduction in bacterial growth incubated for 1 day by paper disk diffusion method; assay type: functional; conditions: ATCC 43300, 24 h
Staphylococcus aureus [20] = assay: Antibacterial activity against Staphylococcus aureus ATCC 29213 assessed as reduction in bacterial growth incubated for 1 day by paper disk diffusion method; assay type: functional; conditions: ATCC 29213, 24 h
Salmonella typhimurium [21] = assay: Bactericidal activity against Salmonella typhi ATCC 6539 incubated for 24 hrs followed by transferring to freshly prepared broth medium and measured after 24 hrs by broth microdilution assay; assay type: functional, Salmonella enterica subsp. enterica serovar […]; conditions: Salmonella enterica, time 48 hrs
Aspergillus brasiliensis [22] = assay: Antifungal activity against Aspergillus brasiliensis ATCC 16404 assessed as reduction in bacterial growth incubated for 3 days by paper disk diffusion method; assay type: functional; conditions: ATCC 16404, 72 h, time 3 day
Staphylococcus aureus [23] = assay: Antibacterial activity against Staphylococcus aureus ATCC 29213 assessed as diameter of inhibition zone at 0.5 mg/ml incubated for 24 hrs by agar diffusion method; assay type: functional; conditions: read-out: DIZ
Staphylococcus aureus [24] = assay: Antibacterial activity against multidrug resistant Staphylococcus aureus ATCC 43300 assessed as diameter of inhibition zone at 0.5 mg/ml incubated for 24 hrs by agar diffusion method; assay type: functional; conditions: read-out: DIZ
DNA gyrase = DNA gyrase (Staphylococcus aureus, UniProt P0A0K8+P20831); assay: Inhibition of Staphylococcus aureus DNA gyrase using relaxed pBR322 DNA as substrate incubated for 45 mins by agarose gel electrophoresis method; assay type: protein-complex assay
Staphylococcus aureus [25] = assay: Antibacterial activity against multidrug resistant Staphylococcus aureus ATCC 33591 assessed as diameter of inhibition zone at 0.5 mg/ml incubated for 24 hrs by agar diffusion method; assay type: functional; conditions: read-out: DIZ
Escherichia coli [26] = assay: Bactericidal activity against Escherichia coli ATCC 25922 incubated for 24 hrs followed by transferring to freshly prepared broth medium and measured after 24 hrs by broth microdilution assay; assay type: functional; conditions: time 48 hrs
Candida albicans [27] = assay: Fungicidal activity against Candida albicans ATCC 10231 incubated for 24 hrs followed by transferring to freshly prepared broth medium and measured after 24 hrs by broth microdilution assay; assay type: functional; conditions: time 48 hrs
Aspergillus brasiliensis [28] = assay: Fungicidal activity against Aspergillus brasiliensis ATCC 16404 incubated for 72 hrs followed by transferring to freshly prepared broth medium and measured after 24 hrs by broth microdilution assay; assay type: functional; conditions: time 96 hrs
Salmonella typhimurium [29] = assay: Antibacterial activity against Salmonella typhi ATCC 6539 assessed as diameter of inhibition zone at 0.5 mg/ml incubated for 24 hrs by agar diffusion method; assay type: functional, Salmonella enterica subsp. enterica serovar Typhimurium; conditions: Salmonella enterica, read-out: DIZ
Candida albicans [30] = assay: Antifungal activity against Candida albicans ATCC 10231 assessed as diameter of inhibition zone at 0.5 mg/ml incubated for 24 hrs by agar diffusion method; assay type: functional; conditions: read-out: DIZ

Sequence of DNA gyrase (P0A0K8 whole entry, the tested form may be a part): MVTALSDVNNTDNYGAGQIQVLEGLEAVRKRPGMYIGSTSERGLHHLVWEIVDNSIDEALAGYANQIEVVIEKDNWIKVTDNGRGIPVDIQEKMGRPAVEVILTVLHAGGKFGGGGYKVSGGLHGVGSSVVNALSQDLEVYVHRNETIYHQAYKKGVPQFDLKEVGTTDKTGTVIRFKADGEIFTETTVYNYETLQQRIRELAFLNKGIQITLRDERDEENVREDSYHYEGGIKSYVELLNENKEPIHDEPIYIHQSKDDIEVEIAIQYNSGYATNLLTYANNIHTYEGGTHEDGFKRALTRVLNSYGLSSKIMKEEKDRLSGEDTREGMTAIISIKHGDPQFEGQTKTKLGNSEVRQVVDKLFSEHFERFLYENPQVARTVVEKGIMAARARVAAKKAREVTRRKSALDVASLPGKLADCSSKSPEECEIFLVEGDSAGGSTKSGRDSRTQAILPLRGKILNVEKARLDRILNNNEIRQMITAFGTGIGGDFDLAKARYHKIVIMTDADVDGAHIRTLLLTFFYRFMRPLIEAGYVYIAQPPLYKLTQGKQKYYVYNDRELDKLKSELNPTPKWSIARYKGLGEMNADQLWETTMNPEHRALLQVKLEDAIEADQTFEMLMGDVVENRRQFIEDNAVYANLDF
Sequence of DNA gyrase (P20831 whole entry, the tested form may be a part): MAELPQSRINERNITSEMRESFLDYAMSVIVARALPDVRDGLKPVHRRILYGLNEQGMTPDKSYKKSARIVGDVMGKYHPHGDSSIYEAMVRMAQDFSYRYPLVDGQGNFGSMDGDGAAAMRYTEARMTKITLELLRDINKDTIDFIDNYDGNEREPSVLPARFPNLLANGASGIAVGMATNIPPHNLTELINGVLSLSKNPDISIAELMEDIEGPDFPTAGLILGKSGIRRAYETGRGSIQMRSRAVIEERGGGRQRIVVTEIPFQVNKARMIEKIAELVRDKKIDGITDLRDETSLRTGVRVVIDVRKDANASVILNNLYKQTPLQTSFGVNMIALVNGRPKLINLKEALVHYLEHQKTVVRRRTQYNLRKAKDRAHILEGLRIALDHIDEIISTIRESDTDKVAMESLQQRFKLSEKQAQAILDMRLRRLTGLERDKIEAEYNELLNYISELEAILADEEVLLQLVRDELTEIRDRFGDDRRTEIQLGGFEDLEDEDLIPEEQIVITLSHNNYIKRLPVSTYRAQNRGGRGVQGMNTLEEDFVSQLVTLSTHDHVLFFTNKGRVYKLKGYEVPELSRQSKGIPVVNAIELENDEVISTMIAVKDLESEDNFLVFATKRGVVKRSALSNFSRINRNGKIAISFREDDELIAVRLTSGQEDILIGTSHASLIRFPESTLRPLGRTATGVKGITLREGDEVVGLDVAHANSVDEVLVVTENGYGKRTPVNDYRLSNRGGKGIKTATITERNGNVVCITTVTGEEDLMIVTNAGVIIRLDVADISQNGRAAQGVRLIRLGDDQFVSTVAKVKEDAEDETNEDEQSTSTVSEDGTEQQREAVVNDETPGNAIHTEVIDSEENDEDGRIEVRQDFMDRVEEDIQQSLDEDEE

| Compound | MIC (Escherichia coli [1]) [mg/L] | zone of inhibition at 500 µg/mL (Enterococcus faecalis [2]) [mm] | zone of inhibition at 500 µg/mL (Escherichia coli [3]) [mm] | MIC (Staphylococcus aureus [4]) [mg/L] | MIC (Pseudomonas aeruginosa [5]) [mg/L] | MBC (Pseudomonas aeruginosa [6]) [mg/L] | MIC (Salmonella typhimurium [7]) [mg/L] | zone of inhibition at 500 µg/mL (Pseudomonas aeruginosa [8]) [mm] | MBC (Enterococcus faecalis [9]) [mg/L] | MIC (Escherichia coli [10]) [mg/L] | zone of inhibition at 500 µg/mL (Aspergillus brasiliensis [11]) [mm] | MBC (Staphylococcus aureus [12]) [mg/L] | MBC (Escherichia coli [13]) [mg/L] | Activity (Neutrophil) [%] | MIC (Enterococcus faecalis [14]) [mg/L] | MBC (Staphylococcus aureus [15]) [mg/L] | MIC (Candida albicans [16]) [mg/L] | MBC (Staphylococcus aureus [17]) [mg/L] | zone of inhibition at 500 µg/mL (Escherichia coli [18]) [mm] | MIC (Staphylococcus aureus [19]) [mg/L] | also measured |
| --- | --- | --- | --- | --- | --- | --- | --- | --- | --- | --- | --- | --- | --- | --- | --- | --- | --- | --- | --- | --- | --- |
| CCOC(=O)C1=C(N)OC(c2ccccc2)=C(C(C)=O)C12C(=O)Nc1ccc(S(=O)(=O)N3CCOCC3)cc12 (stereo unspecified) | 3.9 (≈ 7.04 µM) | 25 | 24 | 3.9 (≈ 7.04 µM) | 2.6 (≈ 4.7 µM) | 5.2 (≈ 9.39 µM) | 35.5 (≈ 64.2 µM) | 25 | 25 (≈ 45.2 µM) | 6.25 (≈ 11.3 µM) | 21 | 81.2 (≈ 147 µM) | 6.24 (≈ 11.3 µM) | 95.6 | 12.5 (≈ 22.6 µM) | 7.8 (≈ 14.1 µM) | 17.8 (≈ 32.1 µM) | 7.8 (≈ 14.1 µM) | 25 | 3.9 (≈ 7.04 µM) | MIC (Staphylococcus aureus [20]): 62.5 mg/L (≈ 113 µM); MBC (Salmonella typhimurium [21]): 49.8 mg/L (≈ 89.9 µM); MIC (Aspergillus brasiliensis [22]): 35.5 mg/L (≈ 64.2 µM); zone of inhibition at 500 µg/mL (Staphylococcus aureus [23]): 23 mm; zone of inhibition at 500 µg/mL (Staphylococcus aureus [24]): 23 mm; IC50 (DNA gyrase): 20.1 µM; zone of inhibition at 500 µg/mL (Staphylococcus aureus [25]): 24 mm; MBC (Escherichia coli [26]): 12.5 mg/L (≈ 22.6 µM); MFC (Candida albicans [27]): 24.9 mg/L (≈ 44.9 µM); MFC (Aspergillus brasiliensis [28]): 71.1 mg/L (≈ 128 µM); zone of inhibition at 500 µg/mL (Salmonella typhimurium [29]): 23 mm; zone of inhibition at 500 µg/mL (Candida albicans [30]): 24 mm |
| CCOC(=O)C1=C(N)OC(c2ccccc2)=C(C(=O)OCC)C12C(=O)Nc1ccc(S(=O)(=O)N3CCCCC3)cc12 (stereo unspecified) | 4.44 (≈ 7.63 µM) | 22 | 23 | 6.25 (≈ 10.7 µM) | 5.2 (≈ 8.94 µM) | 8.84 (≈ 15.2 µM) | 15.6 (≈ 26.9 µM) | 22 | 15.6 (≈ 26.9 µM) | 8.88 (≈ 15.3 µM) | 17 | 150 (≈ 258 µM) | 5.32 (≈ 9.15 µM) | 139.3 | 7.81 (≈ 13.4 µM) | 9.37 (≈ 16.1 µM) | 15.6 (≈ 26.9 µM) | 10 (≈ 17.2 µM) | 23 | 6.25 (≈ 10.7 µM) | MIC (Staphylococcus aureus [20]): 88.3 mg/L (≈ 152 µM); MBC (Salmonella typhimurium [21]): 21.9 mg/L (≈ 37.6 µM); MIC (Aspergillus brasiliensis [22]): 71.8 mg/L (≈ 123 µM); zone of inhibition at 500 µg/mL (Staphylococcus aureus [23]): 21 mm; zone of inhibition at 500 µg/mL (Staphylococcus aureus [24]): 22 mm; IC50 (DNA gyrase): 23.2 µM; zone of inhibition at 500 µg/mL (Staphylococcus aureus [25]): 22 mm; MBC (Escherichia coli [26]): 11.5 mg/L (≈ 19.8 µM); MFC (Candida albicans [27]): 21.9 mg/L (≈ 37.6 µM); MFC (Aspergillus brasiliensis [28]): 115 mg/L (≈ 197 µM); zone of inhibition at 500 µg/mL (Salmonella typhimurium [29]): 21 mm; zone of inhibition at 500 µg/mL (Candida albicans [30]): 21 mm |
| CC(=O)C1=C(C)OC(N)=C(C#N)C12C(=O)Nc1ccc(S(=O)(=O)N3CCOCC3)cc12 (stereo unspecified) | 6.25 (≈ 14.1 µM) | 20 | 22 | 7.81 (≈ 17.6 µM) | 8.88 (≈ 20 µM) | 17.8 (≈ 40 µM) | 31.2 (≈ 70.3 µM) | 18 | 26.6 (≈ 60 µM) | 15.6 (≈ 35.1 µM) | 14 | 85.3 (≈ 192 µM) | 12.5 (≈ 28.1 µM) | 112.9 | 17.8 (≈ 40 µM) | 9.37 (≈ 21.1 µM) | 7.81 (≈ 17.6 µM) | 12.5 (≈ 28.1 µM) | 21 | 7.81 (≈ 17.6 µM) | MIC (Staphylococcus aureus [20]): 71.1 mg/L (≈ 160 µM); MBC (Salmonella typhimurium [21]): 50 mg/L (≈ 112 µM); MIC (Aspergillus brasiliensis [22]): 125 mg/L (≈ 281 µM); zone of inhibition at 500 µg/mL (Staphylococcus aureus [23]): 22 mm; zone of inhibition at 500 µg/mL (Staphylococcus aureus [24]): 21 mm; IC50 (DNA gyrase): 25.1 µM; zone of inhibition at 500 µg/mL (Staphylococcus aureus [25]): 20 mm; MBC (Escherichia coli [26]): 23.4 mg/L (≈ 52.7 µM); MFC (Candida albicans [27]): 15.6 mg/L (≈ 35.1 µM); MFC (Aspergillus brasiliensis [28]): 150 mg/L (≈ 337 µM); zone of inhibition at 500 µg/mL (Salmonella typhimurium [29]): 19 mm; zone of inhibition at 500 µg/mL (Candida albicans [30]): 21 mm |
